According to ChEMBL document CHEMBL1201862, “PubChem BioAssay data set” (2004):
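These data come from cells grown in 96-well plates and exposed to compound for 48 hours at five concentrations. GI50: concentration for 50% inhibition of growth.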 Active and inactive are the calls of the source. Rule as the data show it: active = GI50 up to about 1.1 µM and inactive = higher.

Columns and labels:
Assay in all cases: DTP human tumour cell line panel, 48 h
[1] = system: 786-0
[2] = system: A498
[3] = system: A549
[4] = system: ACHN
[5] = system: BT-549
[6] = system: CAKI-1
[7] = system: CCRF-CEM
[8] = system: COLO 205
[9] = system: DU-145
[10] = system: EKVX
[11] = system: HCC 2998
[12] = system: HCT-116
[13] = system: HCT-15
[14] = system: HL-60
[15] = system: HOP-62
[16] = system: HOP-92
[17] = system: HT-29
[18] = system: Hs-578T
[19] = system: IGROV-1
[20] = system: K562
[21] = system: KM12
[22] = system: LOX IMVI
[23] = system: M14
[24] = system: MCF7
[25] = system: MDA-MB-231
[26] = system: MDA-MB-435
[27] = system: MDA-N
[28] = system: MOLT-4
[29] = system: Malme-3M
[30] = system: NCI-H226
[31] = system: NCI-H23
[32] = system: NCI-H522
[33] = system: NCI/ADR-RES
[34] = system: OVCAR-3
[35] = system: OVCAR-4
[36] = system: OVCAR-5
[37] = system: OVCAR-8
[38] = system: RPMI-8226
[39] = system: RXF 393
[40] = system: SF-268
[41] = system: SF-295
[42] = system: SF-539
[43] = system: SK-MEL-2
[44] = system: SK-MEL-5
[45] = system: SK-OV-3
[46] = system: SN12C
[47] = system: SNB-19
[48] = system: SNB-75
[49] = system: SR
[50] = system: SW-620
[51] = system: T47D
[52] = system: TK-10
[53] = system: U-251
[54] = system: UACC-257
[55] = system: UACC-62
[56] = system: UO-31
[57] = system: NCI-H460
[58] = system: PC-3
[59] = system: SK-MEL-28

CCCCc1ccc(Nc2nc(N)c3ncn(COCCO)c3n2)cc1
GI50 [1]: 25.5 µM (inactive)
GI50 [2]: 28.2 µM (inactive)
GI50 [3]: 44.3 µM (inactive)
GI50 [4]: 18 µM (inactive)
GI50 [5]: 25.5 µM (inactive)
GI50 [6]: 38.7 µM (inactive)
GI50 [7]: 26.4 µM (inactive)
GI50 [8]: 17.2 µM (inactive)
GI50 [9]: 37.7 µM (inactive)
GI50 [10]: 41.4 µM (inactive)
GI50 [11]: 27.2 µM (inactive)
GI50 [12]: 26.9 µM (inactive)
GI50 [13]: 19.3 µM
GI50 [14]: 36.3 µM (inactive)
GI50 [15]: 17.1 µM (inactive)
GI50 [16]: 18.2 µM (inactive)
GI50 [17]: 24.4 µM (inactive)
GI50 [18]: 36.8 µM (inactive)
GI50 [19]: 18 µM (inactive)
GI50 [20]: 7.01 µM (inactive)
GI50 [21]: 32.8 µM (inactive)
GI50 [22]: 18.9 µM (inactive)
GI50 [23]: 20.6 µM (inactive)
GI50 [24]: 37.4 µM (inactive)
GI50 [25]: 29 µM (inactive)
GI50 [26]: 22.1 µM (inactive)
GI50 [27]: 37.2 µM (inactive)
GI50 [28]: 33 µM (inactive)
GI50 [29]: 25.7 µM (inactive)
GI50 [30]: 44.3 µM (inactive)
GI50 [31]: 21.3 µM (inactive)
GI50 [32]: 26.1 µM (inactive)
GI50 [33]: 20.9 µM (inactive)
GI50 [34]: 16.6 µM (inactive)
GI50 [35]: 32.2 µM (inactive)
GI50 [36]: 38.8 µM (inactive)
GI50 [37]: 25.9 µM (inactive)
GI50 [38]: 30.6 µM (inactive)
GI50 [39]: 30.1 µM (inactive)
GI50 [40]: 33 µM (inactive)
GI50 [41]: 19.8 µM (inactive)
GI50 [42]: 28.2 µM (inactive)
GI50 [43]: 17 µM (inactive)
GI50 [44]: 18 µM (inactive)
GI50 [45]: 11.2 µM (inactive)
GI50 [46]: 33 µM (inactive)
GI50 [47]: 48.9 µM (inactive)
GI50 [48]: 32.6 µM (inactive)
GI50 [49]: 18 µM (inactive)
GI50 [50]: 26.1 µM (inactive)
GI50 [51]: 24.4 µM (inactive)
GI50 [52]: 52.6 µM (inactive)
GI50 [53]: 22.1 µM (inactive)
GI50 [54]: 21.3 µM (inactive)
GI50 [55]: 16.8 µM (inactive)
GI50 [56]: 29.9 µM (inactive)

O=C(NC1CCCCC1NC(c1ccccc1)(c1ccccc1)c1ccccc1)C(=O)NC1CCCCC1NC(c1ccccc1)(c1ccccc1)c1ccccc1 (configuration not stated)
GI50 [1]: 53.7 µM (inactive)
GI50 [2]: 28.9 µM (inactive)
GI50 [3]: > 100 µM (inactive)
GI50 [4]: 92 µM (inactive)
GI50 [5]: 28.1 µM (inactive)
GI50 [6]: > 100 µM (inactive)
GI50 [7]: > 100 µM (inactive)
GI50 [8]: > 100 µM (inactive)
GI50 [9]: > 100 µM (inactive)
GI50 [10]: 67.3 µM (inactive)
GI50 [11]: > 100 µM (inactive)
GI50 [12]: > 100 µM (inactive)
GI50 [13]: > 100 µM
GI50 [14]: > 100 µM (inactive)
GI50 [15]: 27.5 µM (inactive)
GI50 [16]: 10.5 µM (inactive)
GI50 [17]: > 100 µM (inactive)
GI50 [18]: 13.6 µM (inactive)
GI50 [19]: 69.2 µM (inactive)
GI50 [20]: > 100 µM (inactive)
GI50 [21]: > 100 µM (inactive)
GI50 [22]: > 100 µM (inactive)
GI50 [24]: > 100 µM (inactive)
GI50 [25]: > 100 µM (inactive)
GI50 [26]: > 100 µM (inactive)
GI50 [28]: > 100 µM (inactive)
GI50 [29]: > 100 µM (inactive)
GI50 [30]: 59.3 µM (inactive)
GI50 [31]: > 100 µM (inactive)
GI50 [57]: > 100 µM (inactive)
GI50 [32]: 89.9 µM (inactive)
GI50 [33]: 81.5 µM (inactive)
GI50 [34]: > 100 µM (inactive)
GI50 [35]: 22.6 µM (inactive)
GI50 [36]: > 100 µM (inactive)
GI50 [37]: > 100 µM (inactive)
GI50 [58]: > 100 µM (inactive)
GI50 [38]: > 100 µM (inactive)
GI50 [40]: 24 µM (inactive)
GI50 [41]: > 100 µM (inactive)
GI50 [42]: 51.2 µM (inactive)
GI50 [59]: > 100 µM (inactive)
GI50 [43]: > 100 µM (inactive)
GI50 [44]: > 100 µM (inactive)
GI50 [45]: 28.6 µM (inactive)
GI50 [46]: > 100 µM (inactive)
GI50 [47]: > 100 µM (inactive)
GI50 [48]: 1.63 µM (inactive)
GI50 [49]: > 100 µM (inactive)
GI50 [50]: > 100 µM (inactive)
GI50 [51]: 60.4 µM (inactive)
GI50 [52]: > 100 µM (inactive)
GI50 [53]: 21 µM (inactive)
GI50 [54]: > 100 µM (inactive)
GI50 [55]: > 10 µM (inactive)
GI50 [56]: 43.6 µM (inactive)
